One assay deals with IL-23p19. Briefly: LPS induced IL23p19 in THP-1 cells (with IFNγ primed) assay. Type of assay: cell-based, Human. Conditions: Homo sapiens, THP-1, 18 h. In a few lines:
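Readout is secreted IL-23p19, quantified by chemiluminescent sandwich ELISA after 18 h LPS (1 ug/mL) stimulation of THP-1 cells that had been IFNγ-primed (50 ng/mL, ~18 h) and given compound 1 h beforehand at 37 °C. EC50 derived by curve fit; cytotoxicity tracked with Cell Titer Glo.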

Another assay relates to IL-23 (p19/p40). Briefly: IL23-p19 ELISA, Dendritic, LPS (compound screening using DC cells). Type of assay: cell-based, Human. Conditions: Homo sapiens, 18 h. The method, boiled down:
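IL-23 in supernatants quantified by sandwich ELISA (anti-p19 capture, biotinylated anti-p40 detection, chemiluminescent readout) after 18 h LPS (1 μg/ml) stimulation. Cells were monocyte-derived DCs (GM-CSF/IL-4, 7 d), IFNγ-primed 24 h and given compound 1 h before LPS; viability by CellTiter Glo.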
In general terms: In an ELISA, binding on a coated surface is turned into a signal by an enzyme label.

The mark [1] stands for this setting: THP-1 cells, IFNγ primed, LPS 1 ug/mL, 18 hours, 10 pt, read-out: IL23-p19 ELISA, THP1-IFNy, LPS, 10 pt EC50.
Where [2] appears, read: PBMC-derived DC cells, IFNγ primed, LPS 1 μg/ml, 18 hours, 10 pt, read-out: IL23-p19 ELISA, Dendritic, LPS, 10 pt, EC50.

Structures can show the parent of a compound that is named as a salt. Where two headings read alike, the source gives them in different places.

The EC50 is the midpoint of the concentration-response curve. In the case of `CCO[C@H]1C[C@@H](n2cc(NC(=O)c3ccc(-c4cnn(C)c4)o3)c(-c3ccccn3)n2)C1` [Compound I-31, N-(1-((1,3-cis)-3-ethoxycyclobutyl)-3-(pyridin-2-yl)-1H-pyrazol-4-yl)-5-(1-methyl-1H-pyrazol-4-yl)furan-2-carboxamide], the values for the EC50 in the assay on IL-23p19 (setting [1]) and in the assay with IL-23 (p19/p40) (setting [2]) were 6.29 µM and 1.25 µM, respectively.

On to `O=C(Nc1cn([C@H]2C[C@H](OCC(F)(F)F)C2)nc1-c1ccccn1)c1ccc(-c2cn[nH]c2)o1` [Compound I-128, 5-(1H-pyrazol-4-yl)-N-(3-(pyridin-2-yl)-1-(3-(2,2,2-trifluoroethoxy)cyclobutyl)-1H-pyrazol-4-yl)furan-2-carboxamide formate], for which the EC50 in the assay with IL-23p19 (setting [1]) came to 0.134 µM; in the assay on IL-23 (p19/p40) (setting [2]), 0.0604 µM.

As for `O=C(Nc1cn(C(F)F)nc1-c1ccccn1)c1csc(-c2c[nH]nc2C(F)(F)F)n1` [II-95, N-(1-(difluoromethyl)-3-(pyridin-2-yl)-1H-pyrazol-4-yl)-2-(3-(trifluoromethyl)-1H-pyrazol-4-yl)thiazole-4-carboxamide], the EC50 in the assay with IL-23p19 (setting [1]) came to 2.25 µM; in the assay on IL-23 (p19/p40) (setting [2]) it was 6.23 µM.

For `CCO[C@H]1C[C@@H](n2cc(NC(=O)c3csc(-c4cn[nH]c4)n3)c(-c3ccc(C(F)(F)F)cn3)n2)C1` [II-86, N-(1-((1,3-cis)-3-ethoxycyclobutyl)-3-(5-(trifluoromethyl)pyridin-2-yl)-1H-pyrazol-4-yl)-2-(1H-pyrazol-4-yl)thiazole-4-carboxamide], the EC50 with IL-23p19 (setting [1]) stood at 0.137 µM; with IL-23 (p19/p40) (setting [2]), 5.78 µM.

Consider `CC(C)(C)C(=O)N1CC(n2cc(NC(=O)c3ccc(-c4cn[nH]c4)o3)c(-c3ccccn3)n2)C1` [Compound I-91, N-[1-{1-Pivaloylazetidin-3-yl}-3-(pyridine-2-yl)-1H-pyrazol-4-yl]-5-(1H-pyrazol-4-yl)furan-2-carboxamide, formate salt], for which the EC50 was determined as 0.0122 µM with IL-23p19 (setting [1]) and 0.0106 µM with IL-23 (p19/p40) (setting [2]).

As for `CCO[C@H]1C[C@@H](n2cc(NC(=O)c3csc(-c4cnn(COCC[Si](C)(C)C)c4F)n3)c(-c3ccccn3)n2)C1` [II-71, N-(1-((1s,3s)-3-ethoxycyclobutyl)-3-(pyridin-2-yl)-1H-pyrazol-4-yl)-2-(5-fluoro-1-((2-(trimethylsilyl)ethoxy)methyl)-1H-pyrazol-4-yl)thiazole-4-carboxamide], the EC50 with IL-23p19 (setting [1]) amounted to 49.6 µM; with IL-23 (p19/p40) (setting [2]), 10.4 µM.

Turning to `CCO[C@H]1C[C@@H](n2cc(NC(=O)c3ccc(-c4cn[nH]c4)o3)c(-c3ccc(F)cn3)n2)C1` [Compound I-138, N-(1-((1s,3s)-3-ethoxycyclobutyl)-3-(5-fluoropyridin-2-yl)-1H-pyrazol-4-yl)-5-(1H-pyrazol-4-yl)furan-2-carboxamide formate], the EC50 with IL-23p19 (setting [1]) was found to be 0.926 µM; with IL-23 (p19/p40) (setting [2]), 0.686 µM.

Turning to `Cn1cc(NC(=O)c2csc(-c3cnn(COP(=O)(O)O)c3)n2)c(-c2ccccn2)n1` [II-38, Potassium (4-(4-((1-methyl-3-(pyridin-2-yl)-1H-pyrazol-4-yl)carbamoyl)thiazol-2-yl)-1H-pyrazol-1-yl)methyl phosphate], the EC50 with IL-23p19 (read-out: IL23-p19 ELISA, THP1-IFNy, LPS, 10 pt EC50 (μM)) worked out at 0.505 µM; in the assay with IL-23 (p19/p40) (read-out: IL23-p19 ELISA, Dendritic, LPS, 10 pt, EC50 (μM)) it was 0.771 µM.

On to `O=C(Nc1cn(C2CNC2)nc1-c1ccccn1)c1csc(-c2cn[nH]c2)n1` [II-55, N-{1-(Azetidin-3-yl)-3-(pyridine-2-yl)-1H-pyrazol-4-yl}-2-(1H-pyrazol-4-yl)thiazole-4-carboxamide], for which the EC50 in the assay on IL-23p19 (setting [1]) turned out to be 0.0749 µM; in the assay on IL-23 (p19/p40) (setting [2]) it was 0.0435 µM.

Regarding `O=C(Nc1cn(CCN2CCOCC2)nc1-c1ccccn1)c1csc(-c2cn[nH]c2)n1` [II-60, N-(1-(2-morpholinoethyl)-3-(pyridin-2-yl)-1H-pyrazol-4-yl)-2-(1H-pyrazol-4-yl)thiazole-4-carboxamide], the EC50 in the assay on IL-23p19 (setting [1]) worked out at 0.0473 µM; in the assay on IL-23 (p19/p40) (setting [2]), 0.0533 µM.

Turning to `CCO[C@H]1C[C@@H](n2cc(NC(=O)c3coc(-c4cn[nH]c4)n3)c(-c3ccccn3)n2)C1` [III-4, N-(1-((1s,3s)-3-ethoxycyclobutyl)-3-(pyridin-2-yl)-1H-pyrazol-4-yl)-2-(1H-pyrazol-4-yl)oxazole-4-carboxamide], the EC50 with IL-23p19 (setting [1]) turned out to be 0.0434 µM; in the assay with IL-23 (p19/p40) (setting [2]), 0.0369 µM.

Values taken from patent US10208074B2, “Pyrazole compounds and method for making and using the compounds” (Rigel Pharmaceuticals, Inc., priority 2015, dated 2019).
